Measured values from patent publication US9988361B2, “Anti-enterovirus 71 thiadiazolidine derivative” (JIANGSU KANION PHARMACEUTICAL CO. LTD, priority 2014, dated 2018).

test system: EV71 virus strain Shenzhen/120F1/09; assay: EV71 in-vitro cytopathic effect (CPE) test; type: cell-based, RD cells of human rhabdomyoma; conditions: Enterovirus A, 72 h; RD cells, EV71 100 TCID50, 3 days, CCK8 readout; read-out: EC50 by EC71 CPE test, EV71
Method: Test of EV71 In-Vitro Cytopathic Effect (CPE) To test the in-vitro antiviral activity and cytotoxicity of a compound to HFMD virus EV71 by means of cytopathic effect (CPE) test. […] Cell line: RD cells of human rhabdomyoma • 3. Cell culture media: DMEM medium added with 10% serum, Penicillin/Streptomycin and L-[…]×) • 4. […] Cell inoculation: digest off the RD cells from the attached state, then dilute them with culture medium to a density of 80000/ml and inoculate 100 μl into the micro wells the 96-well plate. • 2. Dilution of compound: • Step 1: prepare the dry powder of a compound to test into a 10 mM solution in DMSO. Then dilute the compound by three times to eight concentration points. Dilute the reference compounds with the same method. • Step 2: further dilute the diluted solution of the compound in DMSO with cell culture medium. Add 10 μl DMSO solution for each well into 240 μl culture medium. • 3. Add the diluted compound solution by 50 μl each well into the 96-well plate inoculated with cells (double holes, final concentration of DMSO is 1%). • 4. Dilution of virus: dilute EV71 virus solution by 10000 times to a concentration of 100 TCID50/50 μl/. Add the diluted virus solution by 50 μl each well into the 96-well plate. Prepare another 96-well plate to replace the virus with culture medium and similarly inoculate the cells. Add the compound to test the toxicity of compound on cells. • 5. Cultivate the 96-well plate 3 days at the conditions of 37° C. and 5% CO2. • 6. EC50 and CC50 tests: add the cellular activity test reagent CCK8 into the micro-wells by 20 μl/well. Use ELIASA to read the absorbancy at the wavelength of 450 nm and 630 nm. • 7.

Compound	EC50 [nM]
CCO/N=C/c1ccc(OCCCCCN2CCN(c3ccc(Cl)nn3)S2(=O)=O)cc1 [Embodiment 34, (E)-4-((5-(5-(6-chloro-pyridazin-3-yl)-1,1-dioxide-1,2,5-thiadiazolidine-2-yl)-pentyl)-oxy)-benzaldehyde-O-ethyl ketoxime]	500 to 1000
CCO/N=C/c1ccc(OCCCCCN2CCN(c3ccnc(C(=O)OC)c3)S2(=O)=O)cc1 [Embodiment 37]	500 to 1000
CCCc1nc2ccc(OCCCCCN3CCN(c4ccnc(N)c4)S3(=O)=O)cc2o1 [Embodiment 66, 2-(2-amino-pyridin-4-yl)-5-(5-((2-propyl-benzo[d]oxazole-6-yl)-oxy)-pentyl)-1,2,5-thiadiazolidine-1,1-dioxide]	50 to 100
CCO/N=C1\CCc2cc(OCCC(F)(F)CCN3CCN(c4ccnc(N)c4)S3(=O)=O)ccc21 [Embodiment 31, (E)-2-(2-amino-pyridin-4-yl)-5-(5-((1-(ethoxy-imino)-2,3-dihydro-1H-inden-5-yl)-oxy)-3,3-difluoropentyl)-1,2,5-thiadiazolidine-1,1-dioxide]	100 to 500
CCOc1noc2cc(OCCC(F)CCN3CCN(c4ccncc4)S3(=O)=O)ccc12 (stereo not drawn) [Embodiment 72, 2-(5-((3-ethoxy-benzo[d]isoxazole-6-yl)-oxy)-3-fluoro-pentyl)-5-(pyridin-4-yl)-1,2,5-thiadiazolidine-1,1-dioxide]	50 to 100
CCO/N=C/c1ccc(OCCCCCN2CCN(c3ccnc(NC)c3)S2(=O)=O)cc1 [Embodiment 41, (E)-4-((5-(5-(2-(methylamino)-pyridin-4-yl)-1,1-dioxide-1,2,5-thiadiazolidine-2-yl)-pentyl)-oxy)-benzaldehyde-O-ethyl ketoxime]	< 50
CCO/N=C/c1ccc(OCCCCCN2CCN(c3ccnc(N)c3)S2(=O)=O)cn1 [Embodiment 56, (E)-5-((5-(5-(2-amino-pyridin-4-yl)-1,1-dioxide-1,2,5-thiadiazolidine-2-yl)-pentyl)-oxy)-picolinaldehyde-O-ethyl ketoxime]	50 to 100
CCO/N=C1\CCc2cc(OCCCCCN3CCN(c4cc(N)ncc4F)S3(=O)=O)ccc21 [Embodiment 49, (E)-2-(2-amino-5-fluoro-pyridin-4-yl)-5-(5-((1-(ethoxy-imino)-2,3-dihydro-1H-indene-5-yl)-oxy)-pentyl)-1,2,5-thiadiazolidine-1,1-dioxide]	100 to 500
CCO/N=C1\CCc2cc(OCCC(C)(C)CCN3CCN(c4ccnc(N)c4)S3(=O)=O)ccc21 [Embodiment 30, (E)-2-(2-amino-pyridin-4-yl)-5-(5-((1-(ethoxy-imino)-2,3-dihydro-1H-inden-5-yl)-oxy)-3,3-dimethylpentyl)-1,2,5-thiadiazolidine-1,1-dioxide]	< 50
CCc1nc(-c2ccc(OCCCCCN3CCN(c4ccncc4)S3(=O)=O)cc2)no1 [Embodiment 10, 2-(5-(4-(5-ethyl-1,2,4-oxadiazol-3-yl)-phenoxy)-pentyl)-5-(pyridin-4-yl)-1,2,5-thiadiazolidine-1,1-dioxide]	50 to 100
Nc1cc(N2CCN(CCCCCOc3ccc(-c4ccc(Cl)cc4)cc3)S2(=O)=O)ccn1 [Embodiment 16, 2-(2-aminopyridine-4-yl)-5-(5-((4′-chloro-[1,1′-biphenyl]-4-yl)-oxy)-pentyl)-1,2,5-thiadiazolidine-1,1-dioxide]	< 50
CCO/N=C/c1ccc(OCCOCCN2CCN(c3ccnc(N)c3)S2(=O)=O)cc1 [Embodiment 55]	100 to 500
O=S1(=O)N(CCCCC2CCc3cc(-c4ccc(Cl)cc4)ccc3O2)CCN1c1ccncc1 (stereo not drawn) [Embodiment 19, 2-(4-(6-(4-chlorophenyl)-chroman-2-yl)-butyl)-5-(pyridin-4-yl)-1,2,5-thiadiazolidine-1,1-dioxide]	100 to 500
CCO/N=C/c1ccc(OCCCCCN2CCN(c3ccnc(N(C)C)c3)S2(=O)=O)cc1 [Embodiment 43, (E)-4-((5-(5-(2-(dimethylamino)-pyridin-4-yl)-1,1-dioxide-1,2,5-thiadiazolidine-2-yl)-pentyl)-oxy)-benzaldehyde-O-ethyl ketoxime]	100 to 500
CCO/N=C/c1ccc(OCCCCCN2CCN(c3ccnc(F)c3)S2(=O)=O)cc1 [Embodiment 39, (E)-4-((5-(5-(2-Fluoro-4-yl)-1,1-dioxide-1,2,5-thiadiazolidine-2-yl)-pentyl)-oxy)-benzaldehyde-O-ethyl ketoxime]	50 to 100
CCc1nnc(-c2ccc(OCCCCCN3CCN(c4ccnc(N)c4)S3(=O)=O)cc2)o1 [Embodiment 63, 4-(5-(5-(4-(5-ethyl-1,3,4-oxadiazol-2-yl)-phenoxy)-pentyl)-1,1-dioxo-1,2,5-thiadiazolidine-2-yl)-pyridin-2-amine]	100 to 500
CCO/N=C/c1ccc(OCCCCCN2CCN(c3ccc(C)nn3)S2(=O)=O)cc1 [Embodiment 33, (E)-4-((5-(5-(6-methyl-pyridazin-3-yl)-1,1-dioxide-1,2,5-thiadiazolidine-2-yl)-pentyl)-oxy)-benzaldehyde-O-ethyl ketoxime]	100 to 500
CCO/N=C1\CCc2cc(OCCCCCN3CCN(c4ccsc4)S3(=O)=O)ccc21 [Embodiment 46, (E)-2-(5-((1-(ethoxy-imino)-2,3-dihydro-1H-inden-5-yl)-oxy)-pentyl)-5-(thiophen-3-yl)-1,2,5-thiadiazolidine-1,1-dioxide]	100 to 500
CCO/N=C/c1ccc(OCCCCCN2CCN(c3cc(N)ncn3)S2(=O)=O)cc1 [Embodiment 38, (E)-4-((5-(5-(6-amino-pyrimidin-4-yl)-1,1-dioxide-1,2,5-thiadiazolidine-2-yl)-pentyl)-oxy)-benzaldehyde-O-ethyl ketoxime]	< 50
CCO/N=C/c1ccc(OCCC(C)CCN2CCN(c3ccncc3)S2(=O)=O)cc1 (stereo not drawn) [Embodiment 14, (E)-4-((5-(1,1-dioxo-5-(pyridin-4-yl)-1,2,5-thiadiazolidine-2-yl)-3-methyl-pentyl)-oxy)-benzaldehyde-O-ethyloxime]	< 50
CCO/N=C/c1ccc(OCCCCCN2CCN(c3nccs3)S2(=O)=O)cc1 [Embodiment 35, (E)-4-((5-(1,1-dioxide-5-(thiazol-2-yl)-1,2,5-thiadiazolidine-2-yl)-pentyl)-oxy)-benzaldehyde-O-ethyl ketoxime]	100 to 500
CCO/N=C/c1ccc(OCCCCCN2CCN(c3ccnc(NCCO)c3)S2(=O)=O)cc1 [Embodiment 40, (E)-4-((5-(5-(2-((2-hydroxyethyl)-amino)-pyridin-4-yl)-1,1-dioxide-1,2,5-thiadiazolidine-2-yl)-pentyl)-oxy)-benzaldehyde-O-ethyl ketoxime]	< 50
CCO/N=C/c1ccc(OCCCCCCN2CCN(c3ccnc(N)c3)S2(=O)=O)cc1 [Embodiment 25, (E)-4-((6-(5-(2-aminopyridin-4-yl)-1,1-dioxide-1,2,5-thiadiazolidine-2-yl)-hexyl)-oxy)-benzaldehyde-O-ethyl ketoxime]	< 50
CCO/N=C1\CCc2cc(OCCCCCN3CCN(c4ccnc(N)c4F)S3(=O)=O)ccc21 [Embodiment 48, (E)-2-(2-amino-3-fluoropyridin-4-yl)-5-(5-((1-(ethoxy-imino)-2,3-dihydro-1H-indene-5-yl)-oxy)-pentyl)-1,2,5-thiadiazolidine-1,1-dioxide]	100 to 500
CCO/N=C/c1ccc(OCCCCCN2CCN(c3ccc(C#N)cc3)S2(=O)=O)cc1 [Embodiment 44]	50 to 100
CC(C)O/N=C1\CCc2cc(OCCCCCN3CCN(c4ccnc(N)c4)S3(=O)=O)ccc21 [Embodiment 58]	< 50
CCOc1noc2cc(OCCCCCN3CCN(c4ccncc4)S3(=O)=O)ccc12 [Embodiment 12, 2-(5-((3-ethoxy-benzo[d]isoxazole-6-yl)-oxy)pentyl)-5-(pyridin-4-yl)-1,2,5-thiadiazolidine-1,1-dioxide]	< 50
Cc1nc(-c2ccc(OCCCCCN3CCN(c4ccnc(N)c4)S3(=O)=O)cc2)no1 [Embodiment 69]	< 50
CCOc1noc2cc(OCCC(O)CCN3CCN(c4ccncc4)S3(=O)=O)ccc12 (stereo not drawn) [Embodiment 71, 2-(5-((3-ethoxy-benzo[d]isoxazole-6-yl)-oxy)-3-hydroxy-pentyl)-5-(pyridin-4-yl)-1,2,5-thiadiazolidine-1,1-dioxide]	100 to 500

same assay, conditions: RD cells, EV71 100 TCID50, 3 days, CCK8 readout; read-out: EC50 by EC71 CPE test, EV71

Compound	EC50 [nM]
(S,E)-2-(2-aminopyridin-4-yl)-5-(5-((1-(ethoxy-imino)-2,3-dihydro-1H-inden-5-yl)-oxy)-3-methylpentyl)-1,2,5-thiadiazolidine-1,1-dioxide and (R,E)-2-(2-aminopyridin-4-yl)-5-(5-((1-(ethoxy-imino)-2,3-dihydro-1H-inden-5-yl)-oxy)-3-methylpentyl)-1,2,5-thiadiazolidine-1,1-dioxide [Embodiment 29]	< 50
